# Laboratory results taken from US8236490B2, “Screening method for compounds that reduce ER stress” (EM Biotecnologia S.A., priority 2007, dated 2012).
# Tested on: DGI-TAUP301L cells (ER stress induced by mutant TAU-P301L protein)
# Assay: ER stress reporter (KAR2 UPRE-GFP) screening assay in DGI-TAUP301L yeast cells; fluorescence normalised to cell density
# Assay type: cell-based, Saccharomyces cerevisiae
# Settings: 2% galactose, 2 days at 30° C.
# Method: Screening was conducted with a DGI-TAUP301L yeast cell expressing the mutant TAU-P301L protein under the control of GAL1 promoter and containing the ER stress sensor reporter plasmid with GFP as reporter, described above in the “Construction of the ER sensor reporter plasmid” section. […] The resulting fluorescent signal was normalised to cell density and the normalised fluorescence was used as a direct measure of ER stress level in the cells.
# A commercial library containing 50 080 small molecules was screened along with 5 dipeptide molecules from an academic collaboration and 208 extracts from a proprietary natural extract collection. Active compounds, with the potential to modulate the deleterious effects of TAU-P301L expression, were identified by their ability to decrease normalised fluorescence, without influencing growth. Growth was determined by measuring optical density (OD) of a culture.
# DGI-TAUP301L cells were dispensed into 96-well plates on minimum medium containing 2% galactose to fully express the mutant protein, together with 10 μM candidate compound. All liquid handing steps were performed using a Janus Automated Workstation (Perkin Elmer). Plates were incubated for 2 days at 30° C. under shaking in a Liconic STX40 Automated Incubator. Growth and fluorescence were monitored with a Victor 3V microplate reader (PE). […]
# (§1) DGI-TAUP301L cells were pre-grown on a mixture of 2% galactose until reaching early exponential phase (OD=1-2). […] Growth and fluorescence were monitored for 2 days at 30° C. under agitation. […]
# as §1, §1, §1
smiles,measurement,setting,value
C[S+](C)[O-] [DMSO],reduction of ER stress,2% DMSO,35%
O=C(/C=C/c1ccccc1)NC(NC(=S)Nc1cccc2cccnc12)C(Cl)(Cl)Cl (stereo not drawn) [salubrinal],reduction of ER stress signal,100 μM salubrinal,~50%
"C[N+](C)(C)CCO [Choline, choline]",reduction of ER stress,0.4 M choline,35%
